Data taken from ChEMBL document CHEMBL1811755, “α-Tocotrienol quinone modulates oxidative stress response and the biochemistry of aging” (Bioorg Med Chem Lett, 2011).
Values belong to the compound of their own block, whether it stands above or below them. The source made the active and inactive calls. No cut-off for these calls is given here.

Columns and labels:
Fibroblast [1] = experiment: Cytoprotectant activity against L-buthionine-(S,R)-sulfoximine-induced cell death in Leigh syndrome patient fibroblasts assessed as increase of cell viability up to 1000 nM; assay type: functional, cell-based; conditions: Homo sapiens
Fibroblast [2] = experiment: Cytoprotectant activity against L-buthionine-(S,R)-sulfoximine-induced cell death in Friedreich ataxia patient fibroblasts assessed as increase of cell viability up to 1000 nM; assay type: functional, cell-based; conditions: Homo sapiens
Rattus norvegicus [3] = experiment: In vivo metabolic stability in rat assessed as parent compound remaining at 25 mg/kg, po; assay type: ADME, organism-based; design: dose 25 mg/kg, route oral
Rattus norvegicus [4] = experiment: In vivo metabolic stability in rat assessed as parent compound remaining at 5 mg/kg, iv; assay type: ADME, organism-based; design: dose 5 mg/kg, route intravenous
[5] = Cytoprotectant activity against L-buthionine-(S,R)-sulfoximine-induced cell death in Friedreich ataxia patient fibroblasts assessed as increase of cell viability; assay type: functional, cell-based; conditions: Homo sapiens, Fibroblast
[6] = Volume of distribution at steady state in dog plasma at 2 mg/kg, iv; assay type: ADME, organism-based, Canis lupus familiaris; design: dose 2 mg/kg, route intravenous; conditions: read-out: Vdss
Heart = experiment: Drug level in mouse heart at 25 mg/kg, ip; assay type: ADME, organism-based; design: dose 25 mg/kg, route intraperitoneal; conditions: in vivo
Fibroblast [7] = experiment: Ratio of compound EC50 to resveratrol EC50 for cytoprotectant activity in Friedreich ataxia patient fibroblasts; assay type: functional, Homo sapiens
CHO = experiment: Genotoxicity in CHO cells assessed as induction of micronucleus; assay type: toxicity, cell-based, Cricetulus griseus; conditions: chinese hamster
[8] = Cmax in human plasma at 2 mg/kg, po; assay type: ADME, organism-based; design: dose 2 mg/kg, route oral
[9] = Bioavailability in fed rat plasma at 10 mg/kg, po; assay type: ADME, organism-based
[10] = AUCt in rat plasma at 2 mg/kg, iv; assay type: ADME, organism-based; design: dose 2 mg/kg, route intravenous
[11] = Tmax in rat plasma at 25 mg/kg, po; assay type: ADME, organism-based; design: dose 25 mg/kg, route oral
Canis familiaris [12] = experiment: Prolongation of prothrombin time in dog at 100 mg/kg/day, po; assay type: functional, organism-based; conditions: Canis lupus familiaris
[13] = Cmax in dog plasma at 10 mg/kg, po; assay type: ADME, organism-based, Canis lupus familiaris; design: dose 10 mg/kg, route oral
[14] = Terminal half life in mouse brain at 25 mg/kg, ip; assay type: ADME, organism-based; design: dose 25 mg/kg, route intraperitoneal; conditions: read-out: beta t1/2 (converted)
[15] = AUCt in mouse plasma at 25 mg/kg, ip; assay type: ADME, organism-based; design: dose 25 mg/kg, route intraperitoneal
[16] = Cmax in mouse plasma at 25 mg/kg, ip; assay type: ADME, organism-based; design: dose 25 mg/kg, route intraperitoneal
Mus musculus [17] = experiment: Ratio of drug level in mouse heart to serum at 25 mg/kg, ip; conditions: other tissue
Serum = experiment: Drug level in mouse serum at 25 mg/kg, ip; assay type: ADME, organism-based; design: dose 25 mg/kg, route intraperitoneal; conditions: in vivo
[18] = Drug level in dog retina at 300 mg/kg/day, po qd for 7 days; assay type: ADME, organism-based, Canis lupus familiaris; design: route oral; conditions: read-out: Drug uptake
[19] = Tmax in human plasma at 2 mg/kg, po; assay type: ADME, organism-based; design: dose 2 mg/kg, route oral
[20] = Toxicity in dog administered orally once daily for 28 days; assay type: organism-based, Canis lupus familiaris; conditions: in vivo, po
[21] = Clearance in dog plasma at 2 mg/kg, iv; assay type: ADME, organism-based, Canis lupus familiaris; design: dose 2 mg/kg, route intravenous
[22] = Apparent volume of distribution in dog plasma at 2 mg/kg, iv; assay type: ADME, organism-based, Canis lupus familiaris; design: dose 2 mg/kg, route intravenous; conditions: read-out: Vz
[23] = Terminal half life in dog plasma at 2 mg/kg, iv; assay type: ADME, organism-based, Canis lupus familiaris; design: dose 2 mg/kg, route intravenous; conditions: read-out: beta t1/2 (converted)
[24] = Tmax in dog plasma at 10 mg/kg, po; assay type: ADME, organism-based, Canis lupus familiaris; design: dose 10 mg/kg, route oral
[25] = Cmax in rat plasma at 25 mg/kg, po; assay type: ADME, organism-based; design: dose 25 mg/kg, route oral
[26] = AUC (infinity) in rat plasma at 10 mg/kg, po; assay type: ADME, organism-based; design: time infinity, dose 10 mg/kg, route oral
[27] = AUC (infinity) in dog plasma at 2 mg/kg, iv; assay type: ADME, organism-based, Canis lupus familiaris; design: dose 2 mg/kg, route intravenous, time infinity
[28] = Tmax in mouse plasma at 25 mg/kg, ip; assay type: ADME, organism-based; design: dose 25 mg/kg, route intraperitoneal
[29] = Tmax in mouse brain at 25 mg/kg, ip; assay type: ADME, organism-based; design: dose 25 mg/kg, route intraperitoneal
[30] = Bioavailability in dog plasma at 10 mg/kg, po; assay type: ADME, organism-based, Canis lupus familiaris
[31] = AUCt in rat plasma at 25 mg/kg, po; assay type: ADME, organism-based; design: dose 25 mg/kg, route oral
[32] = Terminal half life in mouse plasma at 25 mg/kg, ip; assay type: ADME, organism-based; design: dose 25 mg/kg, route intraperitoneal; conditions: read-out: beta t1/2 (converted)
Brain [33] = experiment: AUCt in mouse brain at 25 mg/kg, ip; assay type: ADME, organism-based; design: dose 25 mg/kg, route intraperitoneal; conditions: in vivo
Rattus norvegicus [34] = experiment: Prolongation of prothrombin time in rat at 100 mg/kg/day, po; assay type: functional, organism-based
Plasma [35] = experiment: Volume of infusion in rat plasma at 2 mg/kg, iv; assay type: ADME, organism-based; design: dose 2 mg/kg, route intravenous; conditions: in vivo
[36] = AUCt in dog plasma at 10 mg/kg, po; assay type: ADME, organism-based, Canis lupus familiaris; design: dose 10 mg/kg, route oral
[37] = AUC (infinity) in dog plasma at 10 mg/kg, po; assay type: ADME, organism-based, Canis lupus familiaris; design: time infinity, dose 10 mg/kg, route oral
Mus musculus [38] = experiment: Ratio of drug level in mouse brain to serum at 25 mg/kg, ip
[39] = Terminal half life in dog plasma at 10 mg/kg, po; assay type: ADME, organism-based, Canis lupus familiaris; design: dose 10 mg/kg, route oral; conditions: read-out: beta t1/2 (converted)
Plasma [40] = experiment: Volume of infusion in dog plasma at 2 mg/kg, iv; assay type: ADME, organism-based, Canis lupus familiaris; design: dose 2 mg/kg, route intravenous; conditions: in vivo
Salmonella typhimurium = experiment: Mutagenic activity in Salmonella Typhimurium by Ames test; assay type: toxicity, organism-based; conditions: salmonella enterica subsp. enterica serovar typhimurium
[41] = AUC (infinity) in mouse plasma at 25 mg/kg, ip; assay type: ADME, organism-based; design: time infinity, dose 25 mg/kg, route intraperitoneal
[42] = Volume of distribution at steady state in rat plasma at 2 mg/kg, iv; assay type: ADME, organism-based; design: dose 2 mg/kg, route intravenous; conditions: read-out: Vdss
Plasma [43] = experiment: AUC (infinity) in rat plasma at 2 mg/kg, iv; assay type: ADME, organism-based; design: time infinity, dose 2 mg/kg, route intravenous; conditions: in vivo
Fibroblast [44] = experiment: Ratio of compound EC50 to co-enzyme Q10 EC50 for cytoprotectant activity in Friedreich ataxia patient fibroblasts; assay type: functional, Homo sapiens
[45] = AUCt in dog plasma at 2 mg/kg, iv; assay type: ADME, organism-based, Canis lupus familiaris; design: dose 2 mg/kg, route intravenous
[46] = Cytoprotectant activity against L-buthionine-(S,R)-sulfoximine-induced cell death in Leigh syndrome patient fibroblasts assessed as increase of cell viability; assay type: functional, cell-based; conditions: Homo sapiens, Fibroblast
Rattus norvegicus [47] = experiment: Prolongation of activated partial thromboplastin time in rat at 100 mg/kg/day, po; assay type: functional, organism-based
[48] = Tmax in rat plasma at 10 mg/kg, po; assay type: ADME, organism-based; design: dose 10 mg/kg, route oral
Canis familiaris [49] = experiment: Prolongation of activated partial thromboplastin time in dog at 100 mg/kg/day, po; assay type: functional, organism-based; conditions: Canis lupus familiaris
[50] = Toxicity in rat administered orally once daily for 28 days; assay type: organism-based; conditions: in vivo, po
[51] = AUCt in rat plasma at 10 mg/kg, po; assay type: ADME, organism-based; design: dose 10 mg/kg, route oral
[52] = Cmax in mouse brain at 25 mg/kg, ip; assay type: ADME, organism-based; design: dose 25 mg/kg, route intraperitoneal
[53] = Terminal half life in rat plasma at 10 mg/kg, po; assay type: ADME, organism-based; design: dose 10 mg/kg, route oral; conditions: read-out: beta t1/2 (converted)
[54] = Bioavailability in fasted rat plasma at 25 mg/kg, po; assay type: ADME, organism-based
[55] = Cmax in rat plasma at 10 mg/kg, po; assay type: ADME, organism-based; design: dose 10 mg/kg, route oral
[56] = Drug level in dog cornea at 300 mg/kg/day, po qd for 7 days; assay type: ADME, organism-based, Canis lupus familiaris; design: route oral; conditions: read-out: Drug uptake
Fibroblast [57] = experiment: Ratio of compound EC50 to idebenone EC50 for cytoprotectant activity in Friedreich ataxia patient fibroblasts; assay type: functional, Homo sapiens
[58] = Apparent volume of distribution in rat plasma at 2 mg/kg, iv; assay type: ADME, organism-based; design: dose 2 mg/kg, route intravenous; conditions: read-out: Vz
[59] = Terminal half life in rat plasma at 2 mg/kg, iv; assay type: ADME, organism-based; design: dose 2 mg/kg, route intravenous; conditions: read-out: beta t1/2 (converted)
Brain [60] = experiment: AUC (infinity) in mouse brain at 25 mg/kg, ip; assay type: ADME, organism-based; design: time infinity, dose 25 mg/kg, route intraperitoneal; conditions: in vivo
[61] = Plasma concentration in dog at 300 mg/kg/day, po qd for 7 days; assay type: ADME, organism-based, Canis lupus familiaris; design: route oral

SMILES: COC1=C(OC)C(=O)C(C/C=C(\C)CC/C=C(\C)CC/C=C(\C)CC/C=C(\C)CC/C=C(\C)CC/C=C(\C)CC/C=C(\C)CC/C=C(\C)CC/C=C(\C)CCC=C(C)C)=C(C)C1=O
Activity (Fibroblast [1]): inactive | Activity (Fibroblast [2]): inactive

Stability (Rattus norvegicus [3]): 5% | Stability (Rattus norvegicus [4]): 7%
SMILES: CC(C)=CCC/C(C)=C/CC/C(C)=C/CC[C@]1(C)CCc2c(C)c(O)c(C)c(C)c2O1 [ALPHA-TOCOTRIENOL]

SMILES: COC1=C(OC)C(=O)C(CCCCCCCCCCO)=C(C)C1=O [IDEBENONE]
EC50 [5]: 850 nM

SMILES: Oc1ccc(/C=C/c2cc(O)cc(O)c2)cc1 [RESVERATROL]
EC50 [5]: 1440 nM

Vd [6]: 2.54 L/kg | Drug uptake (Heart): 848 ng/g | Cmax [8]: 167 ng/mL | bioavailability [9]: 89% | AUC(0-t) [10]: 984 ng·h/mL | Tmax [11]: 4 h | Cmax [13]: 442 ng/mL | half-life [14]: 12.4 h | AUC(0-t) [15]: 4840 ng·h/mL | Cmax [16]: 1190 ng/mL | Ratio (Mus musculus [17]): 0.71 mL/g | Drug uptake (Serum): 300 ng/mL | concentration at 168 h [18]: 11200 ng/g | Tmax [19]: 2 h | clearance [21]: 9.57 mL/min/kg | Vd [22]: 6.25 L/kg | half-life [23]: 7.5 h | Tmax [24]: 2.8 h | Cmax [25]: 248 ng/mL | AUC(0-inf) [26]: 4780 ng·h/mL | AUC(0-inf) [27]: 3570 ng·h/mL | Tmax [28]: 0.5 h | Tmax [29]: 12 h | bioavailability [30]: 17% | AUC(0-t) [31]: 961 ng·h/mL | half-life [32]: 7.6 h | AUCt (Brain [33]): 7738 ng·h/g | Vi (Plasma [35]): 0.117 L/kg | AUC(0-t) [36]: 2690 ng·h/mL | AUC(0-inf) [37]: 2820 ng·h/mL | Ratio (Mus musculus [38]): 1.83 mL/g | half-life [39]: 7.6 h | Vi (Plasma [40]): 0.095 L/kg | AUC(0-inf) [41]: 5860 ng·h/mL | Vd [42]: 0.222 L/kg | AUC (Plasma [43]): 1069 ng·h/mL | AUC(0-t) [45]: 3410 ng·h/mL | Tmax [48]: 3.5 h | AUC(0-t) [51]: 4730 ng·h/mL | Cmax [52]: 539 ng/g | half-life [53]: 3.5 h | bioavailability [54]: 4.1% | Cmax [55]: 931 ng/mL | concentration at 168 h [56]: 755 ng/g | Vd [58]: 3.73 L/kg | half-life [59]: 3.5 h | AUC (Brain [60]): 10724 ng·h/g | concentration at 168 h [61]: 10000 ng/mL
SMILES: CC(C)=CCC/C(C)=C/CC/C(C)=C/CC[C@@](C)(O)CCC1=C(C)C(=O)C(C)=C(C)C1=O [VATIQUINONE]
Ratio EC50 (Fibroblast [7]): 100 | Activity (CHO): Non-toxic | Activity (Canis familiaris [12]): Active | NOAEL at 672 h [20]: 100 mg/kg | Activity (Rattus norvegicus [34]): Active | Activity (Salmonella typhimurium): Non-toxic | Ratio EC50 (Fibroblast [44]): 100 | EC50 [46]: 30 nM | Activity (Rattus norvegicus [47]): Active | Activity (Canis familiaris [49]): Active | NOAEL at 672 h [50]: 100 mg/kg | Ratio EC50 (Fibroblast [57]): 100 | EC50 [5]: 24 nM
